Numbering of substitutions follows the chain as printed.

Data on two molecules can be found in US9644240B2, “Disease susceptibility” (Leiden University, priority 2009, dated 2017).

For experiment [1], the system named is four MR haplotypes. Briefly: Ligand induced transactivation on a TAT-3 promoter in Cos-1 cells, comparison among haplotypes. The experiment is classed as cell-based, human. The settings on record: for difference in transactivation responses among the four MR haplotypes: reporter (fluc)/control (rluc) ratios, three experiments pooled. The method, then: (§1) Cos-1 cells (African green monkey kidney cells) were cultured in DMEM high glucose supplemented with 10% FCS (Gibco, Paisley, UK). Cells were seeded in 24-well plates (Greiner Bio-One, Alphen a/d Rijn, The Netherlands) at 3×10^4 cells/well in DMEM supplemented with charcoal-stripped serum. The cells were transfected the next day using SuperFect (Qiagen, Venlo, The Netherlands). hMR plasmids and the reporter plasmid TAT3-Luc (tyrosine amino transferase triple hormone response element) were used at 100 ng/well. The control plasmid pCMV-R (Promega, Leiden, The Netherlands) coding for Renilla luciferase controlled by cytomegalovirus (CMV) promoter was used (10 ng/well). One day after transfection, the cells were treated with cortisol (Sigma-Aldrich, Zwijndrecht, the Netherlands) in concentrations ranging from 0 to 10^−8 M. After 24 h of incubation the cells were harvested in passive lyses buffer (Promega) and firefly and Renilla luciferase activity was determined using a dual label reporter assay (Promega) and a luminometer (CENTRO XS3 LB960, Berthold, Bad Wildbad, Germany). Three separate experiments were performed and all three experiments were performed in triplicate.
(§2) The in vitro experiments were analyzed using GraphPad prism 4 (GraphPad software Inc, San Diego, Calif.). In the transactivation assays firefly/renilla luciferase ratios were normalized against the highest signal and background expression was subtracted. MR protein expression measured by western blot was normalized against γ-Tubulin. The differences between the four hMR variants were analyzed with one and two-way ANOVAs with Bonferroni posttests. In the radioligand binding assay one-binding-site curve fitting was used to determine the dissociation constant (Kd) and maximal binding (Bmax). The specific MR cortisol binding was obtained by subtracting the non-specific binding from the total binding. The difference in Kd and Bmax between MRI180 and MR180V was tested with a t-test. In vitro results are shown as the mean±SD.

Experiment [2] concerns the target T1, MR180V (Homo sapiens, UniProt P08235).
T1 construct: expressed in transfected cells; host or cells: Cos-1 cells (African green monkey kidney)
T1 sequence (P08235 1-984): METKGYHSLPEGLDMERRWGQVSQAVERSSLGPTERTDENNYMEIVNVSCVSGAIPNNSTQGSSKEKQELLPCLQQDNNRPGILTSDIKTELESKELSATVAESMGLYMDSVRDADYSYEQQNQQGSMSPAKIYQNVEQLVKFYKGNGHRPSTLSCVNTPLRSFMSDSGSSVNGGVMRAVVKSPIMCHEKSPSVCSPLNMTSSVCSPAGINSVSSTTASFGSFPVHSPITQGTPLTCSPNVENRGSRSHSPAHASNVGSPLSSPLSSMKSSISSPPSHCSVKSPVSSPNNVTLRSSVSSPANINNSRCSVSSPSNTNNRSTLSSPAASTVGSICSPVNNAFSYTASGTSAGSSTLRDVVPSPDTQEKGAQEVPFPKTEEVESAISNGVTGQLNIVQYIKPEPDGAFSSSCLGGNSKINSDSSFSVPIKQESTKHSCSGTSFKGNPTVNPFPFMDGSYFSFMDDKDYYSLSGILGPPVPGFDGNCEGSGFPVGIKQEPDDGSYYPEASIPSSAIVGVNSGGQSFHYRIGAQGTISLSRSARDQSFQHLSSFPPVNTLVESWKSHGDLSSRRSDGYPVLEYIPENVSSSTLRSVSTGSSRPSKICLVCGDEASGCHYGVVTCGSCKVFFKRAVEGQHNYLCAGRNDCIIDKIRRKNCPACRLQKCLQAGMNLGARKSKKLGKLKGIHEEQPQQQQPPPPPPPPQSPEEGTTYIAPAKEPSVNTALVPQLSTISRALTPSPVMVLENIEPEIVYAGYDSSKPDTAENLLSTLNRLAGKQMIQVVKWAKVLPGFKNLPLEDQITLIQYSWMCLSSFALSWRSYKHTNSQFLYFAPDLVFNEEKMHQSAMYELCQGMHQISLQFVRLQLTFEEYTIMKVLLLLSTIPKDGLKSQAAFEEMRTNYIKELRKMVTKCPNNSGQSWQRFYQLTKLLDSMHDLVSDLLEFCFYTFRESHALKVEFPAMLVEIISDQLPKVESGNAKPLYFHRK
Briefly: [3H]Cortisol ligand binding assay, cytosol of transfected Cos-1 cells. The settings on record: mean±SD. Here is the method: (§3) Cos-1 cells were seeded in 20 cm plates (Greiner Bio-One, Alphen a/d Rijn, The Netherlands) at 2×10^6 cells/plate in DMEM supplemented with 5% charcoal-stripped serum. Cells were transfected the next day using Mirus Transit-COS reagent according to the manufacturer's protocol (Sopachem, Ochten, The Netherlands) and hMR plasmids were used at 30 μg/plate. After 24 hours medium was replaced with serum free DMEM and after another 24 hours cells were pelleted. All further steps are carried out at 0° C. Cells were resuspended in 3.5 ml buffer (5 mM Tris-HCl (pH 7.4), 1 mM EDTA, 1 mM B-Mercaptoethanol, 10 mM Na-Molybdate, 5% glycerol) per plate and 3×15 seconds homogenised using an electric homogenizer (Pro200, Pro scientific, Oxford, Conn., USA). The homogenate was centrifuged (100.000×g, 2° C.) to obtain cytosol.
(§4) 200 μl cytosol was incubated with [^3H]Cortisol (70 Ci/mmol, Amersham, Buckinghamshire, UK) to asses total binding or [^3H]Cortisol and a 500 fold excess of dexamethasone (Sigma-Aldrich, Zwijndrecht, the Netherlands) to asses non-specific binding. [^3H]Cortisol was used at 0.5 nM, 1 nM, 1.5 nM, 2.5 nM, 3.5 nM, 5 nM. After vortexing and 3 hours incubation on ice bound and free [^3H]Cortisol fractions were separated by Sephadex LH-20 as described previously (de Kloet et al., 1975). Fractions containing the receptor bound radioligand were collected, vortexed with 3 ml Ultima Gold scintillation fluid (Perkin Elmer, Waltham, Mass., USA) and radioactivity was measured in a liquid scintillation analyzer (1900CA Packard, Perkin Elmer). Three separate experiments were performed and all three experiments were performed in triplicate.
as §2, with “binding.” for “binding. The difference in Kd and Bmax between MRI180 and MR180V was tested with a t-test. In vitro results are shown as the mean±SD.”

The target of experiment [3] is T2, MRI180 (Homo sapiens, UniProt P08235).
T2 construct: expressed in transfected cells; host or cells: Cos-1 cells (African green monkey kidney)
T2 sequence (P08235 1-984): T1 sequence (P08235 1-984)
The experiment is described as above. The settings on record: MRI180, mean±SD. The method, then: as §3, §4
as §2, with “binding.” for “binding. The difference in Kd and Bmax between MRI180 and MR180V was tested with a t-test. In vitro results are shown as the mean±SD.”

For experiment [4], the target named is T3, MR Hap 1 (GA) (Homo sapiens, UniProt P08235).
T3 construct: expressed in transfected cells; host or cells: Cos-1 cells (African green monkey kidney)
T3 sequence (P08235 1-984): T1 sequence (P08235 1-984)
Briefly: Cortisol-induced transactivation assay, TAT3-Luc reporter in Cos-1 cells. The experiment is classed as cell-based. The settings on record: TAT-3 promoter, 24 h, read-out: EC50 of cortisol-induced luciferase transcription. The method, then: as §1
as §2, with “binding.” for “binding. The difference in Kd and Bmax between MRI180 and MR180V was tested with a t-test. In vitro results are shown as the mean±SD.”

In experiment [5] the target is T4, MR Hap 2 (CA) (Homo sapiens, UniProt P08235).
T4 construct: expressed in transfected cells; host or cells: Cos-1 cells (African green monkey kidney)
T4 sequence (P08235 1-984): T1 sequence (P08235 1-984)
The description is as above. Conditions: TAT-3 promoter, 24 h, read-out: EC50 of cortisol-induced luciferase transcription. The experiment is classed as cell-based. The method, then:
as §1
as §2, with “binding.” for “binding. The difference in Kd and Bmax between MRI180 and MR180V was tested with a t-test. In vitro results are shown as the mean±SD.”

In experiment [6] the target is T5, MR Hap 4 (GG) (Homo sapiens, UniProt P08235).
T5 construct: expressed in transfected cells; host or cells: Cos-1 cells (African green monkey kidney)
T5 sequence (P08235 1-984 V241A): T1 sequence (P08235 1-984) with V241A
The description is as above. The experiment is classed as cell-based. The settings on record: TAT-3 promoter, 24 h, read-out: EC50 of cortisol-induced luciferase transcription. Here is the method:
as §1
as §2, with “binding.” for “binding. The difference in Kd and Bmax between MRI180 and MR180V was tested with a t-test. In vitro results are shown as the mean±SD.”

Experiment [7] has as its target T6, MR Hap 3 (CG) (Homo sapiens, UniProt P08235).
T6 construct: expressed in transfected cells; host or cells: Cos-1 cells (African green monkey kidney)
T6 sequence (P08235 1-984 V241A): T1 sequence (P08235 1-984) with V241A
Described as above. The experiment is classed as cell-based. Conditions: TAT-3 promoter, 24 h, read-out: EC50 of cortisol-induced luciferase transcription. The method, then: as §1
as §2, with “binding.” for “binding. The difference in Kd and Bmax between MRI180 and MR180V was tested with a t-test. In vitro results are shown as the mean±SD.”

Where [8] appears, read: three experiments pooled, read-out: dissociation constant (Kd) of cortisol binding.

Take `C[C@]12CCC(=O)C=C1CC[C@@H]1[C@@H]2[C@@H](O)C[C@]2(C=O)[C@@H](C(=O)CO)CC[C@@H]12` [Aldosterone]: the “difference in transactivation responses among the four MR haplotypes” value in experiment [1] was “did not show significantly different responses”.

Consider `C[C@]12CCC(=O)C=C1CC[C@@H]1[C@@H]2[C@@H](O)C[C@@]2(C)[C@H]1CC[C@]2(O)C(=O)CO` [cortisol], for which the entries for the “maximal binding (Bmax) of cortisol” value in experiment [2] and in experiment [3] were 7112±371 binding sites/cell and 6539±499 binding sites/cell, respectively. The values for the Kd in experiment [2] (setting [8]) and in experiment [3] (setting [8]) were 0.93 ± 0.16 nM and 0.86 ± 0.2 nM, respectively. Further, the EC50 (commonly the midpoint of the concentration-response curve) in experiment [4] stood at 0.039 nM; in experiment [5], 0.017 nM; in experiment [6], 0.073 nM; in experiment [7], 0.019 nM. Also, in experiment [1] (Hap 1 (GA) and 4 (GG) compared with Hap 2 (CA) and 3 (CG)), the “maximal luciferase expression (Emax)” value is “significant lower maximal luciferase expression (Emax)”. Besides, the “difference in transactivation responses among the four MR haplotypes” value in experiment [1] was “significantly different responses”.
